Our source for the IC50 values is BindingDB's records for doi:10.1016/j.ejmech.2019.111646 (Hangzhou Xixi Hospital, 2019).

The structures appear in SMILES notation.

The nature of experiment [1]: Inhibition of 20S proteasome beta 2c (unknown origin) after 1 hr by fluorescence based assay.
The nature of experiment [2]: Inhibition of 20S proteasome beta 1c (unknown origin) after 1 hr by fluorescence based assay.

Regarding `COc1ccc([C@@H](O)[C@H](NC(=O)[C@H](C)NC(=O)CN2CCOCC2)C(=O)N[C@@H](CC2=CCCC2)C(=O)[C@@]2(C)CO2)cc1` [Kzr-616], the IC50 in experiment [1] came out at 0.028 µM; in experiment [2], 0.43 µM.

Broadly, the IC50 is the point on the concentration scale where inhibition reaches its midpoint. High values mean weaker potency, low ones greater potency.
